Test results from patent US20090048288A1, “METHOD OF TREATING STRESS-MEDIATED DEPRESSION” (H. Lundbeck A/S, priority 2007, published 2009).
“Also recorded” adds a separate entry of the source.

System: Chronic mild stress model in rats
Test: Chronic mild stress model in rats, serum marker analysis
Settings: for Apo A1 (Apolipoprotein A1), median value: serum 24 hrs after last drug injection; for reversal of chronic mild stress induced changes in serum inflammatory markers / cytokine levels: rats exposed to chronic mild stress, compared with non-stressed controls
Text: The biochemical changes induced in the animals studied in the stress models lead to increases in inflammatory mediators/markers.
At the end of the present study, terminal serum samples were collected for marker analysis to evaluate the effects of stress with and without drug on the levels of about 60 blood markers.
Serum samples were withdrawn from the tail, without stunning, during the daytime (09:00-17:00) 24 hrs after the last drug injection. Blood was collected into BD vacutainers containing clot activator and gel for serum preparation, inverted 5 times and maintained on ice until centrifugation at 3000 rpm for 10 min at 4° C. Serum was decanted, placed on ice, and at the end of the day stored at −80° C.

SMILES: Oc1noc2c1CCNC2 [GBX, 4,5,6,7-tetrahydroisoxazolo[5,4-c]pyridine-3-ol]
- CRP (C Reactive Protein), median value (1st study, 5 mg/kg, serum): 1140.00 µg/mL
- Cystatin-C, median value (1st study, 5 mg/kg, serum): 1165.00 ng/mL
- FGF-9 (Fibroblast Growth Factor-9), median value (1st study, 5 mg/kg, serum): 0.59 ng/mL
- GCP-2 (Granulocyte Chemotactic Protein-2), median value (1st study, 5 mg/kg, serum): 0.19 ng/mL
- Growth Hormone, median value (1st study, 5 mg/kg, serum): 7.67 ng/mL
- IL-1alpha (Interleukin-1alpha), median value (1st study, 5 mg/kg, serum): 11.30 pg/mL
- IL-2 (Interleukin-2), median value (1st study, 5 mg/kg, serum): 31.30 pg/mL
- IL-4 (Interleukin-4), median value (1st study, 5 mg/kg, serum): 29.60 pg/mL
- IL-7 (Interleukin-7), median value (1st study, 5 mg/kg, serum): 0.16 ng/mL
- IL-10 (Interleukin-10), median value (1st study, 5 mg/kg, serum): 249.00 pg/mL
- IL-11 (Interleukin-11), median value (1st study, 5 mg/kg, serum): 128.00 pg/mL
- IL-18 (Interleukin-18), median value (1st study, 5 mg/kg, serum): 0.07 ng/mL
- IP-10 (Inducible Protein-10), median value (1st study, 5 mg/kg, serum): 138.00 pg/mL
- IgA (Immunoglobulin A), median value (1st study, 5 mg/kg, serum): 5.91 µg/mL
- Insulin, median value (1st study, 5 mg/kg, serum): 8.88 uIU/mL
- LIF (Leukemia Inhibitory Factor), median value (1st study, 5 mg/kg, serum): 53.90 pg/mL
- Leptin, median value (1st study, 5 mg/kg, serum): 2.59 ng/mL
- Lymphotactin, median value (1st study, 5 mg/kg, serum): 53.80 pg/mL
- M-CSF (Macrophage-Colony Stimulating Factor), median value (1st study, 5 mg/kg, serum): 865.00 ng/mL
- MCP-1 (Monocyte Chemoattractant Protein-1), median value (1st study, 5 mg/kg, serum): 1185.00 pg/mL
- MCP-3 (Monocyte Chemoattractant Protein-3), median value (1st study, 5 mg/kg, serum): 655.00 pg/mL
- MCP-5 (Monocyte Chemoattractant Protein-5), median value (1st study, 5 mg/kg, serum): 0.77 pg/mL
- MIP-1alpha (Macrophage Inflammatory Protein-1alpha), median value (1st study, 5 mg/kg, serum): 173.00 ng/mL
- MIP-1gamma (Macrophage Inflammatory Protein-1gamma), median value (1st study, 5 mg/kg, serum): 7.95 ng/mL
- MIP-2 (Macrophage Inflammatory Protein-2), median value (1st study, 5 mg/kg, serum): 0.08 pg/mL
- MPO (Myeloperoxidase), median value (1st study, 5 mg/kg, serum): 20.80 ng/mL
- NGAL (Lipocalin-2), median value (1st study, 5 mg/kg, serum): 0.17 ng/mL
- Osteopontin, median value (1st study, 5 mg/kg, serum): 396.00 ng/mL
- SAP (Serum Amyloid P), median value (1st study, 5 mg/kg, serum): 133.00 µg/mL
- SCF (Stem Cell Factor), median value (1st study, 5 mg/kg, serum): 14.85 pg/mL
- SGOT (Serum Glutamic-Oxaloacetic Transaminase), median value (1st study, 5 mg/kg, serum): 0.21 µg/mL
- TIMP-1 (Tissue Inhibitor of Metalloproteinase Type-1), median value (1st study, 5 mg/kg, serum): 0.16 ng/mL
- TPO (Thrombopoietin), median value (1st study, 5 mg/kg, serum): 147.00 ng/mL
- Tissue Factor, median value (1st study, 5 mg/kg, serum): 0.10 ng/mL
- VCAM-1 (Vascular Cell Adhesion Molecule-1), median value (1st study, 5 mg/kg, serum): 361.00 ng/mL
- VEGF (Vascular Endothelial Cell Growth Factor), median value (1st study, 5 mg/kg, serum): 81.00 pg/mL
- Apo A1 (Apolipoprotein A1), median value (1st study, 5 mg/kg): 8.20 µg/mL
- Beta-2 Microglobulin, median value (2nd study, 10 mg/kg, serum): 38.00 µg/mL
- CRP (C Reactive Protein), median value (2nd study, 10 mg/kg, serum): 1030.00 µg/mL
- Clusterin, median value (2nd study, 10 mg/kg, serum): 108.00 µg/mL
- Cystatin-C, median value (2nd study, 10 mg/kg, serum): 696.00 ng/mL
- Eotaxin, median value (2nd study, 10 mg/kg, serum): 1072.00 pg/mL
- FGF-9 (Fibroblast Growth Factor-9), median value (2nd study, 10 mg/kg, serum): 1.70 ng/mL
- Factor VII, median value (2nd study, 10 mg/kg, serum): 0.30 ng/mL
- GCP-2 (Granulocyte Chemotactic Protein-2), median value (2nd study, 10 mg/kg, serum): 0.29 ng/mL
- GST-Mu, median value (2nd study, 10 mg/kg, serum): 1190.00 ng/mL
- Growth Hormone, median value (2nd study, 10 mg/kg, serum): 3.10 ng/mL
- IL-1beta (Interleukin-1beta), median value (2nd study, 10 mg/kg, serum): 0.56 ng/mL
- IL-2 (Interleukin-2), median value (2nd study, 10 mg/kg, serum): 22.00 pg/mL
- IL-5 (Interleukin-5), median value (2nd study, 10 mg/kg, serum): 0.24 ng/mL
- IL-7 (Interleukin-7), median value (2nd study, 10 mg/kg, serum): 0.06 ng/mL
- IL-10 (Interleukin-10), median value (2nd study, 10 mg/kg, serum): 362.00 pg/mL
- IL-18 (Interleukin-18), median value (2nd study, 10 mg/kg, serum): 0.43 ng/mL
- IP-10 (Inducible Protein-10), median value (2nd study, 10 mg/kg, serum): 41.00 pg/mL
- IgA (Immunoglobulin A), median value (2nd study, 10 mg/kg, serum): 4.30 µg/mL
- Insulin, median value (2nd study, 10 mg/kg, serum): 14.50 uIU/mL
- LIF (Leukemia Inhibitory Factor), median value (2nd study, 10 mg/kg, serum): 67.00 pg/mL
- Leptin, median value (2nd study, 10 mg/kg, serum): 1.35 ng/mL
- Lymphotactin, median value (2nd study, 10 mg/kg, serum): 63.00 pg/mL
- M-CSF (Macrophage-Colony Stimulating Factor), median value (2nd study, 10 mg/kg, serum): 1400.00 ng/mL
- MCP-1 (Monocyte Chemoattractant Protein-1), median value (2nd study, 10 mg/kg, serum): 1020.00 pg/mL
- MCP-3 (Monocyte Chemoattractant Protein-3), median value (2nd study, 10 mg/kg, serum): 659.00 pg/mL
- MCP-5 (Monocyte Chemoattractant Protein-5), median value (2nd study, 10 mg/kg, serum): 0.72 pg/mL
- MDC (Macrophage-Derived Chemokine), median value (2nd study, 10 mg/kg, serum): 0.12 pg/mL
- MIP-1alpha (Macrophage Inflammatory Protein-1alpha), median value (2nd study, 10 mg/kg, serum): 127.00 ng/mL
- MIP-1beta (Macrophage Inflammatory Protein-1beta), median value (2nd study, 10 mg/kg, serum): 0.01 pg/mL
- MIP-1gamma (Macrophage Inflammatory Protein-1gamma), median value (2nd study, 10 mg/kg, serum): 19.00 ng/mL
- MIP-2 (Macrophage Inflammatory Protein-2), median value (2nd study, 10 mg/kg, serum): 0.22 pg/mL
- MIP-3beta (Macrophage Inflammatory Protein-3beta), median value (2nd study, 10 mg/kg, serum): 29.70 ng/mL
- MPO (Myeloperoxidase), median value (2nd study, 10 mg/kg, serum): 533.00 ng/mL
- Myoglobin, median value (2nd study, 10 mg/kg, serum): 520.00 ng/mL
- NGAL (Lipocalin-2), median value (2nd study, 10 mg/kg, serum): 0.15 ng/mL
- OSM (Oncostatin M), median value (2nd study, 10 mg/kg, serum): 19.10 ng/mL
- Osteopontin, median value (2nd study, 10 mg/kg, serum): 255.00 ng/mL
- RANTES (Regulation Upon Activation, Normal T-Cell Expressed and Secreted), median value (2nd study, 10 mg/kg, serum): 10.60 pg/mL
- SAP (Serum Amyloid P), median value (2nd study, 10 mg/kg, serum): 403.00 µg/mL
- SCF (Stem Cell Factor), median value (2nd study, 10 mg/kg, serum): 11.30 pg/mL
- SGOT (Serum Glutamic-Oxaloacetic Transaminase), median value (2nd study, 10 mg/kg, serum): 8.53 µg/mL
- TIMP-1 (Tissue Inhibitor of Metalloproteinase Type-1), median value (2nd study, 10 mg/kg, serum): 0.24 ng/mL
- TNF-alpha (Tumor Necrosis Factor-alpha), median value (2nd study, 10 mg/kg, serum): 4.45 ng/mL
- TPO (Thrombopoietin), median value (2nd study, 10 mg/kg, serum): 119.00 ng/mL
- Tissue Factor, median value (2nd study, 10 mg/kg, serum): 0.06 ng/mL
- VCAM-1 (Vascular Cell Adhesion Molecule-1), median value (2nd study, 10 mg/kg, serum): 353.00 ng/mL
- VEGF (Vascular Endothelial Cell Growth Factor), median value (2nd study, 10 mg/kg, serum): 78.00 pg/mL
- Apo A1 (Apolipoprotein A1), median value (2nd study, 10 mg/kg): 6.20 µg/mL
- reversal of chronic mild stress induced changes in serum inflammatory markers / cytokine levels (listed as gaboxadol): dose dependently was able to reverse most of the chronic mild stress induced changes in cytokine levels; also recorded: significantly reversed the stress-induced alterations in serum markers toward levels found in non-stressed controls; also recorded: dose dependently is able to reverse or partially reverse changes at most in inflammatory parameters induced by chronic mild stress

SMILES: CN(C)CCC[C@@]1(c2ccc(F)cc2)OCc2cc(C#N)ccc21 [ESC, escitalopram, reference compound]
- CRP (C Reactive Protein), median value (1st study, 5 mg/kg, serum): 1060.00 µg/mL
- Eotaxin, median value (1st study, 5 mg/kg, serum): 1300.00 pg/mL
- FGF-9 (Fibroblast Growth Factor-9), median value (1st study, 5 mg/kg, serum): 0.90 ng/mL
- GCP-2 (Granulocyte Chemotactic Protein-2), median value (1st study, 5 mg/kg, serum): 0.21 ng/mL
- Growth Hormone, median value (1st study, 5 mg/kg, serum): 1.38 ng/mL
- IL-1alpha (Interleukin-1alpha), median value (1st study, 5 mg/kg, serum): 15.40 pg/mL
- IL-2 (Interleukin-2), median value (1st study, 5 mg/kg, serum): 38.80 pg/mL
- IL-4 (Interleukin-4), median value (1st study, 5 mg/kg, serum): 51.70 pg/mL
- IL-7 (Interleukin-7), median value (1st study, 5 mg/kg, serum): 0.22 ng/mL
- IL-10 (Interleukin-10), median value (1st study, 5 mg/kg, serum): 317.00 pg/mL
- IL-11 (Interleukin-11), median value (1st study, 5 mg/kg, serum): 166.00 pg/mL
- IP-10 (Inducible Protein-10), median value (1st study, 5 mg/kg, serum): 194.00 pg/mL
- IgA (Immunoglobulin A), median value (1st study, 5 mg/kg, serum): 6.54 µg/mL
- Insulin, median value (1st study, 5 mg/kg, serum): 11.30 uIU/mL
- LIF (Leukemia Inhibitory Factor), median value (1st study, 5 mg/kg, serum): 67.20 pg/mL
- Leptin, median value (1st study, 5 mg/kg, serum): 2.62 ng/mL
- Lymphotactin, median value (1st study, 5 mg/kg, serum): 68.00 pg/mL
- M-CSF (Macrophage-Colony Stimulating Factor), median value (1st study, 5 mg/kg, serum): 941.00 ng/mL
- MCP-1 (Monocyte Chemoattractant Protein-1), median value (1st study, 5 mg/kg, serum): 1500.00 pg/mL
- MCP-3 (Monocyte Chemoattractant Protein-3), median value (1st study, 5 mg/kg, serum): 885.00 pg/mL
- MCP-5 (Monocyte Chemoattractant Protein-5), median value (1st study, 5 mg/kg, serum): 0.87 pg/mL
- MIP-1alpha (Macrophage Inflammatory Protein-1alpha), median value (1st study, 5 mg/kg, serum): 244.00 ng/mL
- MIP-1gamma (Macrophage Inflammatory Protein-1gamma), median value (1st study, 5 mg/kg, serum): 11.50 ng/mL
- MIP-2 (Macrophage Inflammatory Protein-2), median value (1st study, 5 mg/kg, serum): 0.09 pg/mL
- MPO (Myeloperoxidase), median value (1st study, 5 mg/kg, serum): 54.60 ng/mL
- NGAL (Lipocalin-2), median value (1st study, 5 mg/kg, serum): 0.22 ng/mL
- Osteopontin, median value (1st study, 5 mg/kg, serum): 310.00 ng/mL
- SAP (Serum Amyloid P), median value (1st study, 5 mg/kg, serum): 178.00 µg/mL
- SCF (Stem Cell Factor), median value (1st study, 5 mg/kg, serum): 16.95 pg/mL
- SGOT (Serum Glutamic-Oxaloacetic Transaminase), median value (1st study, 5 mg/kg, serum): 0.31 µg/mL
- TIMP-1 (Tissue Inhibitor of Metalloproteinase Type-1), median value (1st study, 5 mg/kg, serum): 0.22 ng/mL
- TPO (Thrombopoietin), median value (1st study, 5 mg/kg, serum): 142.00 ng/mL
- Tissue Factor, median value (1st study, 5 mg/kg, serum): 0.15 ng/mL
- VCAM-1 (Vascular Cell Adhesion Molecule-1), median value (1st study, 5 mg/kg, serum): 409.00 ng/mL
- VEGF (Vascular Endothelial Cell Growth Factor), median value (1st study, 5 mg/kg, serum): 106.00 pg/mL
- Apo A1 (Apolipoprotein A1), median value (1st study, 5 mg/kg): 8.40 µg/mL
- reversal of chronic mild stress induced changes in serum inflammatory markers / cytokine levels: inactive at most of these changes
